For the experiment, the system named is A-CHK1 mESCs. Kind of experiment: Aphidicolin sensitivity of A-CHK1 mESCs (crystal violet staining). The format is cell-based, mouse. As to the method: FIG. 5A is a western blot analysis depicting endogenous CHK1 (*) and AID^47-CHK1 (A-CHK1, **) in four selected clones and in parental non-infected mESCs. […] serves as a loading control. Experiment was repeated three times for clones #1 and #2, and a representative blot is presented. In FIG. 5B, A-CHK1 #2 mESCs were treated with ethanol (“Con”) or auxin (“IAA”) for 1 day. Cells were then treated with the indicated concentrations of aphidicolin (“Aph”). Equal concentrations of DMSO were applied to all conditions. The next day, cells were stained with crystal violet and plates were scanned. […] In FIG. 5C, mESC clones were pretreated with […] aphidicolin for 1 day and were then treated with auxin for the indicated time periods. Left panel: mitotic index was calculated as the percentage of H3^pS10-positive cells with 4N DNA content, measured by flow cytometry. […] Tyr15 phosphorylation of CDK1 (“CDKlpY^15”) was detected using a phospho-specific antibody. β-Actin serves as a loading control. […]
CCE mESCs were infected with pRAIDRS A-CHK1 or GFP-A. Selected clones were analyzed for their CHK1-dependent response to aphidicolin treatment. […] Cells were then treated with 1 μM 5 aphidicolin (“Aph”) or 0.001% DMSO for 12 hours and analyzed for DNA content using propidium iodide (“PI”). […] Apoptotic index was calculated as the percentage of Annexin V-positive, 7-AAD-negative cells. […]

In the case of `C[C@@]1(CO)[C@H](O)CC[C@@]2(C)[C@H]1CC[C@H]1C[C@@H]3C[C@@]12CC[C@]3(O)CO` [aphidicolin, Aphidicolin], the “aphidicolin concentration after which cells died” value (auxin-treated (CHK1-depleted) A-CHK1 mESCs) came out at 0.1 mM. Besides, the “fold higher aphidicolin concentration at which control cells survived” value (control-treated A-CHK1 cells versus auxin-treated cells) is listed as 100 fold.

Values taken from patent US11078496B2, “System for F-box hormone receptor regulated protein expression in mammalian cells” (ICAHN SCHOOL OF MEDICINE AT MOUNT SINAI, priority 2016, dated 2021).
